8 compounds from ChEMBL document CHEMBL3886382, “PDE 10a inhibitors for the treatment of type II diabetes” (2015) can be followed below.

The target in experiment [1] is T1, cAMP and cAMP-inhibited cGMP 3',5'-cyclic phosphodiesterase 10A (Rattus norvegicus, UniProt Q9QYJ6).
T1 sequence (Q9QYJ6 whole entry): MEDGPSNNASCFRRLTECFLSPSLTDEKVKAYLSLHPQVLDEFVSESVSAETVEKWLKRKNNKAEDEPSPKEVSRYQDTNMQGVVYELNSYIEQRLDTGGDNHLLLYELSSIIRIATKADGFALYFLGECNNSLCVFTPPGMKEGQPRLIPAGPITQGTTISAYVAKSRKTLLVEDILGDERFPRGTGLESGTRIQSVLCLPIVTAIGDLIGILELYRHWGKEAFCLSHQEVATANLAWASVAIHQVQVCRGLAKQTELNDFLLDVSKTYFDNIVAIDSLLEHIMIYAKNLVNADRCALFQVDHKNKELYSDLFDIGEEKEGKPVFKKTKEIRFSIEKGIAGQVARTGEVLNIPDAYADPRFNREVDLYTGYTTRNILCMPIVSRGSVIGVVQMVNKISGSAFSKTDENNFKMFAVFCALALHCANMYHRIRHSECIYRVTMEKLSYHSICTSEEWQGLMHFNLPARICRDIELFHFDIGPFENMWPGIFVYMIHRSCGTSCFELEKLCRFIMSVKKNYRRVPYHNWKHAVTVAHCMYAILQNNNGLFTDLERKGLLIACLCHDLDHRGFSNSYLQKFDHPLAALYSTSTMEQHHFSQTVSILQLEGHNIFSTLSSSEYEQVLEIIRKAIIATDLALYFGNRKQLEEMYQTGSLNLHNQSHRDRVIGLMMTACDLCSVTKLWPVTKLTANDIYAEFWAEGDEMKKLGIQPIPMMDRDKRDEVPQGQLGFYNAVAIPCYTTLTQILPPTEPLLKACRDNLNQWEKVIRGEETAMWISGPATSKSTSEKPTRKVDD
Briefly: In Vitro Assay: Rat recombinant PDE10a (rPDE10a) was expressed in Sf9 cells using a recombinant rPDE10a baculovirus construct. Cells were harvested after 48 h of infection and the rPDE10a protein was purified by metal chelate chromatography on Ni-sepharose 6FF. Tested compounds were dissolved and diluted in 100% DMSO to a concentration 100 fold of the final concentration in the assay. Compound dilutions (0.4 uL) were added in 384 well plates to 20 uL of incubation buffer (50 mM Tris pH 7.8, 8.3 mM MgCl2, 1.7 mM EGTA). 10 uL of rPDE10a enzyme in incubation buffer was added and the reaction was started by addition of 10 uL substrate to a final concentration of 60 nM cAMP and 0.008 uCi3H-cAMP. The reaction was incubated for 60 min at rt. After incubation, the reaction was stopped with 20 uL of 17.8 mg/mL PDE SPA beads. After sedimentation of the beads during 30 min the radioactivity was measured in a Perkin Elmer Topcount scintillation counter.

Experiment [2] concerns the target cAMP and cAMP-inhibited cGMP 3',5'-cyclic phosphodiesterase 10A (Homo sapiens, UniProt Q9Y233). Briefly: In Vitro Assay: Human recombinant PDE10A2 was expressed in Sf9 cells, using a recombinant baculovirus construct containing the full length sequence containing a 6ÿHis sequence following the start Met to allow metal affinity purification of the recombinant protein. Cells were harvested and the phosphodiesterase protein was purified by metal chelate chromatography on Ni-sepharose 6FF.The affinity of the compounds of Formula (I) for phophodiesterases (PDE) was measured by a scintillation proximity assay (SPA). PDE Yttrium Silicate SPA beads allow PDE activity to be measured by direct binding of the primary phosphate groups of non-cyclic AMP or GMP to the beads via a complex iron chelation mechanism. The amount of bound tritiated product ([3H]-AMP) is measured by liquid scintillation counting.The compounds were dissolved and diluted in 100% DMSO in polystyrene plates to a concentration of 100-fold the final concentration in the assay. Human PDE10A enzyme solution (10 uL) was added.

Chain of cAMP and cAMP-inhibited cGMP 3',5'-cyclic phosphodiesterase 10A (Homo sapiens, UniProt Q9Y233) (Q9Y233 whole entry): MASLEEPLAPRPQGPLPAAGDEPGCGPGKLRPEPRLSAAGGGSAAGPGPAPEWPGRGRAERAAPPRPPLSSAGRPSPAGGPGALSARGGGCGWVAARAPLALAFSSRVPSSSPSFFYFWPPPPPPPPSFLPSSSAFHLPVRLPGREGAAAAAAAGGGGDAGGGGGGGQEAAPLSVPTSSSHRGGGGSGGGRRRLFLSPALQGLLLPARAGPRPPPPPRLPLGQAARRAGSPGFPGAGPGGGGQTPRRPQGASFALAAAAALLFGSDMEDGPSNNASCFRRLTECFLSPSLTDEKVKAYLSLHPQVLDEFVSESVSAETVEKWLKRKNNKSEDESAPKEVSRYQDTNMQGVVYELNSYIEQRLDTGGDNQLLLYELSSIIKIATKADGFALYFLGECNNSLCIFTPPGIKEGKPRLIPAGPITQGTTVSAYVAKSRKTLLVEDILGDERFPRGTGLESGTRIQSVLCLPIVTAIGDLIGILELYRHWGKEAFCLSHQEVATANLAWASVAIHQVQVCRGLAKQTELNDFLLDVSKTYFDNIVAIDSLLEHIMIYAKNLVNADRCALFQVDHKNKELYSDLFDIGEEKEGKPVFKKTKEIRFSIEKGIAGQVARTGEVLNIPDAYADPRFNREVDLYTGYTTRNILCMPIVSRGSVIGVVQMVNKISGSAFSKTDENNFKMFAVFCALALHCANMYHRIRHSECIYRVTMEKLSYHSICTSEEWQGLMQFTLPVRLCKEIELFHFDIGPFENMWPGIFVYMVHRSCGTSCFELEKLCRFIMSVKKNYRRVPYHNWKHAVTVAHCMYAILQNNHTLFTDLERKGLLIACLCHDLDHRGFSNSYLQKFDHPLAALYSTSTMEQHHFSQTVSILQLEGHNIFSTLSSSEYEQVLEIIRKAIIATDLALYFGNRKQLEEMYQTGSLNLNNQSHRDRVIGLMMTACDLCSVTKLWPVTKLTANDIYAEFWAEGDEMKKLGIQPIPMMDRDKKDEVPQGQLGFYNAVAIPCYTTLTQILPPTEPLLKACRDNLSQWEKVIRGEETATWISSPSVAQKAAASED

Consider `O=C(O)c1ccc(-c2c(CSc3ccc4ccccc4n3)nc3c(N4CCOCC4)ccnn23)cc1`, for which, in experiment [1], the concentration for half-maximal inhibition (IC50) stood at 1 nM.
On the same count and under the same terms, the same measure for `O=C(O)c1cccc2nc(/C=C/c3nc4c(N5CCOCC5)cc(Cl)nn4c3-c3cccnc3)ccc12`: 2 nM.
Take `C(#Cc1nc2c(N3CCOCC3)ccnn2c1-c1ccc(N2CCNCC2)nc1)c1ccc2ccccc2n1`: the IC50 in experiment [1] was determined as 1 nM; in experiment [2], 3 nM.
Taken in the same sequence, the figures for `O=C(O)c1cccc2nc(/C=C/c3nc4c(N5CCOCC5)ccnn4c3-c3ccccc3)ccc12` were 1 nM and under 1 nM.
As to `O=C(O)CN1CCC(c2c(C#Cc3ccc4ccccc4n3)nc3c(N4CCOCC4)ccnn23)CC1`, the IC50 in experiment [1] amounted to 5 nM; in experiment [2] it was 7 nM.
`COc1cccc(-c2c(/C=C/c3ccc4c(C(=O)O)cccc4n3)nc3c(N4CCOCC4)ccnn23)c1`: the half-inhibitory concentration (IC50) in experiment [2] worked out at 1 nM.
Take `C(=C\c1nc2c(N3CCOCC3)ccnn2c1-c1ccc(Sc2nnc[nH]2)nc1)/c1ccc2ccccc2n1`: the half-inhibitory concentration (IC50) came to 4 nM in experiment [1] and 6 nM in experiment [2].
On to `N#Cc1ccc(-c2c(/C=C/c3ccc4c(C(=O)O)cccc4n3)nc3c(N4CCOCC4)ccnn23)cc1`, for which, in experiment [1], the IC50 is 1 nM.
